Molecular target: T1, rabbit reticulocyte 15-LO (Oryctolagus cuniculus, UniProt P12530)
T1 construct: Fifteen-lipoxygenase was obtained from phenylhydrazine-treated rabbits and purified per the method of Rapoport; from tissue; host or cells: reticulocytes of phenylhydrazine-treated rabbits
T1 sequence (P12530 1-663): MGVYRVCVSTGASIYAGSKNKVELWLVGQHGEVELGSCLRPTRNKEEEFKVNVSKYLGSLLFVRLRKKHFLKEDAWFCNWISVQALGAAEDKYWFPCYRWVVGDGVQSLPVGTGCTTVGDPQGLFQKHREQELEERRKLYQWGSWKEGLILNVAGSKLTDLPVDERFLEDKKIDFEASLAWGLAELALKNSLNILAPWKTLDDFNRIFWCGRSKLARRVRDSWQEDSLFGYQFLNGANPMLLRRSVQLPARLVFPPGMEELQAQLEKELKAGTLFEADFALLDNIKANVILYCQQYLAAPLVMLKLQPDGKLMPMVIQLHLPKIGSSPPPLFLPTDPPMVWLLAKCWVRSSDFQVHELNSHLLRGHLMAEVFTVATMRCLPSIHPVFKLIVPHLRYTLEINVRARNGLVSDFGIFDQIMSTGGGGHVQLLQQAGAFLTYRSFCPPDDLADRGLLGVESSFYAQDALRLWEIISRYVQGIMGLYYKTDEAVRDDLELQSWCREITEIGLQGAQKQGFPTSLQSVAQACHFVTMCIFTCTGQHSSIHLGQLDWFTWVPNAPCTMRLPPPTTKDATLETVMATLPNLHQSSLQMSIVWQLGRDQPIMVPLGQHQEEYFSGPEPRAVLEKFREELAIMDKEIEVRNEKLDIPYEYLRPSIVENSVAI
Test: Rabbit Reticulocyte 15-LO Assay (h15LO)
Format: biochemical
Conditions: Table 1; 2U rabbit reticulocyte 15-LO, 174 μM linoleic acid, 15 minutes at 4° C.
Description: Rabbit Reticulocyte 15-LO Assay (h15LO)
The present 15-LO assay takes advantage of the ability of 15-LO to oxidize the fatty acid linoleic acid to the hydroperoxy fatty acid 13-(S)HPODE, resulting in the formation of a conjugated diene. The 15-LO inhibitors are incubated with 15-LO enzyme in the presence of linoleic acid substrate. The initial reaction is compared to an uninhibited (maximal) reaction to yield % inhibition. […] This prevents artificial nonenzyme lipid peroxidation and product breakdown in the sample. 13-HPODE is quantitated by comparing peak areas of individual samples with those from a standard curve generated using authentic 13-HODE. This assay is performed using 2U of rabbit reticulocyte 15-LO in the presence of 174 μM linoleic acid. The reaction is incubated for 15 minutes at 4° C. The total reaction volume is 100 μL in PBS containing 0.2% Na cholate.
Fifteen-lipoxygenase was obtained from phenylhydrazine-treated rabbits and purified per the method of Rapoport (Rapoport S. M., Schewe T., Wiesner R., et al. The lipoxygenase of reticulocytes. Purification, characterization, and biological dynamics of the lipoxygenase; its identity with the respiratory inhibitors of the reticulocyte. European Journal of Biochemistry, 1979;96:545-561). The following chemicals were purchased and used as received: linoleic acid (NUJCheck Prep), 13-HPODE (Biomol Research Labs), sodium cholate (Sigma), trimethyl phosphite (Fluka Chemicals).

IC50 [nM]	SMILES
2130	COc1ccc(NC(=O)c2ccccc2)cc1N [Example 21, N-(3-Amino-4-methoxyphenyl)-benzamide]

Same assay, conditions: Table 2; 2U rabbit reticulocyte 15-LO, 174 μM linoleic acid, 15 minutes at 4° C.

SMILES	IC50 [nM]
COc1ccc(S(=O)(=O)Nc2cc(NC(=O)c3ccc(Cl)c(Cl)c3)ccc2OC)cc1 [Example 196, 3,4-Dichloro-N-[4-methoxy-3-(4-methoxy-benzenesulfonylamino)-phenyl]-benzamide]	33
Cc1ccc(C(=O)Nc2ccccc2)cc1Nc1ccccc1 [Example 38, 3-Phenylamino-4-methyl-N-phenyl-benzamide]	> 3000
COc1ccc(C(=O)Nc2ccccc2)cc1CNS(=O)(=O)c1cc(Cl)cc(Cl)c1 [Example 249, 3-[(3,5-Dichloro-benzenesulfonylamino)-methyl]-4-methoxy-N-phenyl-benzamide]	58
COc1ccc(NC(=O)c2ccc(Cl)c(Cl)c2)cc1NCc1cccs1 [Example 264, 3,4-Dichloro-N-{4-methoxy-3-[(thiophen-2-ylmethyl)-amino]-phenyl}-benzamide]	37
COc1ccc(C(=O)Nc2ccc(F)c(F)c2)cc1NCc1cccs1 [Example 258, 4-Methoxy-3-[(thiophen-2-ylmethyl)-amino]-N-(3,4-difluoro-phenyl)-benzamide]	35
CCCCCCCCCCCCS(=O)(=O)Nc1cc(C(=O)Nc2ccccc2)ccc1OC [Example 177, 3-(Dodecane-1-sulfonylamino)-4-methoxy-N-phenyl-benzamide]	2
CCCCCCCCS(=O)(=O)Nc1cc(C(=O)Nc2ccccc2)ccc1OC [Example 178, 4-Methoxy-3-(octane-1-sulfonylamino)-N-phenyl-benzamide]	4

Other lines, results leading:

IC50 [nM]	SMILES
16	COc1ccc(C(=O)Nc2ccccc2)cc1NC(=S)Nc1ccc(Cl)c(C(F)(F)F)c1 [Example 73, 3-[3-(4-Chloro-3-trifluoromethylphenyl)-thioureido]-4-methoxy-N-phenyl-benzamide]
24	COc1ccc(C(=O)Nc2ccc(F)c(F)c2)cc1NCc1cccc(O)c1 [Example 210, 3-(3-Hydroxy-benzylamino)-4-methoxy-N-(3,4-difluoro-phenyl)-benzamide]
89	COc1ccc(C(=O)Nc2ccccc2)cc1NCc1cccc(F)c1 [Example 214, 4-Methoxy-3-(3-fluoro-benzylamino)-N-phenyl-benzamide]
551	COC(=O)c1ccc(CNc2cc(C(=O)Nc3ccccc3)ccc2OC)cc1 [Example 221, 4-[(2-Methoxy-5-phenylcarbamoyl-phenylamino)-methyl]-benzoic Acid Methyl Ester]
197	COc1ccc(C(=O)Nc2ccccc2)cc1NCc1ccc2c(c1)OCO2 [Example 266, 3-[(Benzo[1,3]dioxol-5-ylmethyl)-amino]-4-methoxy-N-phenyl-benzamide]
22	COC(=O)c1cccc(NC(=S)Nc2cc(C(=O)Nc3ccccc3)ccc2OC)c1 [Example 161, 3-[3-(2-Methoxy-5-phenylcarbamoyl-phenyl)-thioureido]-benzoic Acid Methyl Ester]
166	COc1ccc(C(=O)Nc2ccccc2)cc1NCc1cccc(F)c1F [Example 219, 3-(2,3-Difluoro-benzylamino)-4-methoxy-N-phenyl-benzamide]
137	COc1ccc(C(=O)Nc2ccccc2)cc1NCc1cccs1 [Example 259, 4-Methoxy-3-[(thiophen-2-ylmethyl)-amino]-N-phenyl-benzamide]
129	COc1ccc(C(=O)Nc2ccccc2)cc1NCc1cccc2ccccc12 [Example 217, 4-Methoxy-3-[(naphthalen-1-ylmethyl)-amino]-N-phenyl-benzamide]
69	CCN(CC)c1ccc(CNc2cc(C(=O)Nc3ccccc3)ccc2OC)cc1 [Example 211, 3-(4-Diethylamino-benzylamino)-4-methoxy-N-phenyl-benzamide]

Same assay, conditions: Table 2; concentration not given

SMILES	h15LO, value given as bare % [%]
COc1ccc(C(=O)Nc2ccc(F)c(F)c2)cc1NC(=S)Nc1ccc(S(=O)(=O)[O-])cc1.[Na+] [Example 165, 4-{3-[5-(3,4-Difluoro-phenylcarbamoyl)-2-methoxy-phenyl]-thioureido}-benzenesulfonic Acid, Sodium Salt]	98.51
COc1ccc(C(=O)Nc2ccc(F)c(F)c2)cc1NCc1ccc(C(=O)O)cc1 [Example 234, 4-{[5-(3,4-Difluoro-phenylcarbamoyl)-2-methoxy-phenylalino]-methyl}-benzoic Acid]	71.56
COc1ccc(NC(=O)c2ccc(F)c(F)c2)cc1NS(=O)(=O)c1ccc([N+](=O)[O-])cc1 [Example 202, 3,4-Difluoro-N-[4-methoxy-3-(4-nitro-benzenesulfonylamino)-phenyl]-benzamide]	93.85
COc1ccc(C(=O)Nc2ccc(F)cc2)cc1NC(=S)Nc1ccc(C(=O)O)cc1 [Example 166, 4-{3-[5-(4-Fluoro-phenylcarbamoyl)-2-methoxy-phenyl]-thioureido}-benzoic Acid]	98.11
O=C(Nc1ccc(F)c(NC(=S)Nc2cc(Cl)cc(Cl)c2)c1)c1ccc(F)c(F)c1 [Example 170, N-{3-[3-(3,5-Dichloro-phenyl)-thioureido]-4-fluoro-phenyl}-3,4-difluoro-benzamide]	99.53
COc1ccc(C(=O)Nc2ccc(F)c(F)c2)cc1NS(=O)(=O)c1ccc(C#N)cc1 [Example 187, 3-(4-Cyano-benzenesulfonylamino)-4-methoxy-N-(3,4-difluoro-phenyl)-benzamide]	98.38

The next lines start with the values.

h15LO, value given as bare % [%]	SMILES
51	COc1ccc(C(=O)Nc2ccccc2)cc1NC(=S)Nc1cccc([N+](=O)[O-])c1 [Example 254, 4-Methoxy-3-[3-(3-nitro-phenyl)-thioureido]-N-phenyl-benzamide]
96.21	CCN(CC)c1ccc(CNc2cc(C(=O)Nc3ccc(F)c(F)c3)ccc2OC)cc1 [Example 226, 3-(4-Diethylamino-benzylamino)-4-methoxy-N-(3,4-difluoro-phenyl)-benzamide]
58.09	COc1ccc(C(=O)Nc2ccc(Cl)c(Cl)c2)cc1NCc1cccc(F)c1 [Example 240, 3-(3-Fluoro-benzylamino)-4-methoxy-N-(3,4-dichloro-phenyl)-benzamide]
64.09	COc1ccc(C(=O)Nc2ccccc2)cc1NCc1ccc(-c2ccccc2)cc1 [Example 236, 3-[(Biphenyl-4-ylmethyl)-amino]-4-methoxy-N-phenyl-benzamide]
49.19	COc1ccc(C(=O)Nc2ccccc2)cc1NCc1ccc(C(C)C)cc1 [Example 243, 3-(4-Isopropyl-benzylamino)-4-methoxy-N-phenyl-benzamide]
97.24	COc1ccc(C(=O)Nc2ccccc2)cc1NS(=O)(=O)c1ccc([N+](=O)[O-])cc1 [Example 188, 4-Methoxy-3-(4-nitro-benzenesulfonylamino)-N-phenyl-benzamide]
80.36	COc1ccc(C(=O)Nc2ccccc2)cc1NCc1ccc(C(C)(C)C)cc1 [Example 232, 3-(4-tert-Butyl-benzylamino)-4-methoxy-N-phenyl-benzamide]
98.02	COc1ccc(NC(=O)c2ccc(F)c(F)c2)cc1NCc1cccc(O)c1 [Example 245, 3,4-Difluoro-N-[3-(3-hydroxy-benzylamino)-4-methoxy-phenyl]-benzamide]
